This passage reports GI50, TGI and outcome results from PubChem BioAssay (NCI).

Among the test systems are 786-0 renal; OVCAR-3 ovarian; IGROV1 ovarian; SN12C renal; OVCAR-8 ovarian; UO-31 renal; SF-268 CNS; CCRF-CEM leukemia; NCI-H23 lung.
Holding throughout (assay): growth of human tumour cells (NCI), 48 h

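48-hour exposure; five concentrations; linearly interpolated endpoints. At the GI50, growth is halved. Definition used: TGI = concentration required for complete inhibition of growth.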 Calls of active or inactive are those of the source. Cut-off read from the data, not from the text of the source: active = GI50 below about 0.43 µM; inactive = the rest. Where only a bound is given, the exact number is not on record here.

Consider `COc1ccc(C(=O)C#Cc2cnc(OC)nc2OC)cc1`, for which the GI50 was 22000 µM in the assay with 786-0 renal; 20300 µM in the assay with IGROV1 ovarian; 32300 µM in the assay with OVCAR-8 ovarian; 19100 µM with UO-31 renal; 2530 µM in the assay on CCRF-CEM leukemia; 35000 µM with NCI-H23 lung. Further, the TGI with OVCAR-3 ovarian amounted to 3.24 µM; in the assay with SN12C renal it was 2.63 µM; in the assay with OVCAR-8 ovarian, 3.4 µM; in the assay with SF-268 CNS, 7.41 µM; in the assay on CCRF-CEM leukemia, 10800 µM; with NCI-H23 lung it was 3.08 µM. Further, the outcome in the assay on OVCAR-3 ovarian and with SF-268 CNS was inactive.
Take `CCOC(=O)/C(=C\c1ccccc1)C(=O)O`: the TGI with 786-0 renal, in the assay with OVCAR-3 ovarian, in the assay with IGROV1 ovarian, in the assay on SN12C renal, in the assay on OVCAR-8 ovarian and in the assay on UO-31 renal was above 100 µM in each case. The TGI with SF-268 CNS, in the assay with CCRF-CEM leukemia and in the assay on NCI-H23 lung was above 100 µM throughout.
Take `CCOC(=O)/C(C#N)=C/c1[nH]c(C(=O)OCc2ccccc2)c(C)c1C`: the TGI with 786-0 renal, with OVCAR-3 ovarian, in the assay with IGROV1 ovarian, in the assay with SN12C renal, with OVCAR-8 ovarian and with UO-31 renal was above 100 µM throughout. The TGI with SF-268 CNS, with CCRF-CEM leukemia and in the assay on NCI-H23 lung was above 100 µM each time.
In the case of `O=C(CCc1cc(-c2ccccc2)nc(=S)[nH]1)N(Cc1ccccc1)Cc1ccccc1`, the TGI in the assay with 786-0 renal, in the assay on OVCAR-3 ovarian, in the assay with IGROV1 ovarian, in the assay with SN12C renal, in the assay with OVCAR-8 ovarian and in the assay on UO-31 renal was above 100 µM each time. Besides, the TGI in the assay with SF-268 CNS, in the assay on CCRF-CEM leukemia and in the assay on NCI-H23 lung was above 100 µM each time.
As for `CC1OC(OC2C(OC(=O)[C@]34CCC(C)(C)CC3C3=CCC5[C@@]6(C)C[C@H](O)[C@H](OC7OC(CO)C(O)C(O)C7N)[C@@](C)(C(=O)O)C6CC[C@@]5(C)C3(C)CC4)OCC(O)C2O)C(O)C(O)C1OC1OCC(O)C(O)C1O` (some centres undefined), the TGI with 786-0 renal, with OVCAR-3 ovarian, with IGROV1 ovarian, in the assay with SN12C renal, with OVCAR-8 ovarian and with UO-31 renal was above 100 µM each time. For the same molecule, the TGI with SF-268 CNS, in the assay with CCRF-CEM leukemia and in the assay on NCI-H23 lung was above 100 µM in each case.
Regarding `O=C(O)C(CS)Nc1c2ccccc2nc2ccccc12` (centres undefined), the TGI was above 100 µM in the assay with 786-0 renal; above 100 µM in the assay with OVCAR-3 ovarian; above 100 µM in the assay on IGROV1 ovarian; above 100 µM in the assay on SN12C renal; above 100 µM in the assay on OVCAR-8 ovarian; 98 µM in the assay on UO-31 renal. For the same molecule, the TGI in the assay with SF-268 CNS, with CCRF-CEM leukemia and in the assay on NCI-H23 lung was above 100 µM in each case.
Take `NC12CC3CC(C1)CC(C(=O)O)(C3)C2`: the TGI with 786-0 renal, in the assay with OVCAR-3 ovarian, with IGROV1 ovarian, in the assay with SN12C renal, in the assay on OVCAR-8 ovarian and in the assay on UO-31 renal was above 100 µM each time. Also, the TGI in the assay on SF-268 CNS, in the assay on CCRF-CEM leukemia and in the assay on NCI-H23 lung was above 100 µM throughout.
For the molecule `O=C1NC(=O)C(CCC(=O)c2ccc3ccccc3c2)C(=O)N1`, the TGI in the assay on 786-0 renal, in the assay on OVCAR-3 ovarian, with IGROV1 ovarian, in the assay on SN12C renal, with OVCAR-8 ovarian and in the assay with UO-31 renal was above 100 µM throughout. Moreover, the TGI with SF-268 CNS, in the assay with CCRF-CEM leukemia and with NCI-H23 lung was above 100 µM in each case.
`COc1ccc(-c2nc(-c3nc4ccc(Cl)cc4[nH]3)c3ccccn23)cc1`: the GI50 was 1.6 µM in the assay on 786-0 renal; 2.61 µM in the assay with OVCAR-3 ovarian; 4.95 µM in the assay on IGROV1 ovarian; 3.75 µM in the assay with SN12C renal; 2.4 µM in the assay on OVCAR-8 ovarian; 1.74 µM in the assay with UO-31 renal. Besides, the GI50 with SF-268 CNS was 2.93 µM; with CCRF-CEM leukemia it was 27.3 µM; with NCI-H23 lung it was 7.52 µM. The TGI was found to be 3.22 µM in the assay with 786-0 renal; 6.69 µM in the assay with OVCAR-3 ovarian; 22.9 µM with IGROV1 ovarian; 17.8 µM with SN12C renal; 6.69 µM with OVCAR-8 ovarian; 4.11 µM in the assay on UO-31 renal. In addition, the TGI in the assay on SF-268 CNS is 9.07 µM; with CCRF-CEM leukemia it was above 100 µM; in the assay on NCI-H23 lung, 45.7 µM.
Regarding `COC(=O)Nc1nc2ccc(Oc3ccc(NC(=O)Nc4cc(C(F)(F)F)ccc4F)cc3)cc2s1`, the GI50 is above 25 µM in the assay with 786-0 renal; above 23.9 µM with OVCAR-3 ovarian; above 25 µM in the assay on IGROV1 ovarian; above 17.3 µM in the assay with SN12C renal; 8.67 µM in the assay with OVCAR-8 ovarian; above 25 µM in the assay with UO-31 renal. The GI50 in the assay with SF-268 CNS is 8.5 µM; in the assay on CCRF-CEM leukemia, above 23.7 µM; in the assay with NCI-H23 lung, 9.25 µM. In addition, the TGI in the assay on 786-0 renal, in the assay with OVCAR-3 ovarian, with IGROV1 ovarian, with SN12C renal, with OVCAR-8 ovarian and in the assay on UO-31 renal was above 25 µM throughout. The TGI with SF-268 CNS, in the assay on CCRF-CEM leukemia and with NCI-H23 lung was above 25 µM each time.
For the molecule `Nc1nc(N(Cc2ccccc2)c2ccccc2)c2cn[nH]c2n1`, the GI50 with 786-0 renal was 4.63 µM; with OVCAR-3 ovarian, 3.34 µM; in the assay with IGROV1 ovarian, 4.16 µM; in the assay on SN12C renal, 5.71 µM; with OVCAR-8 ovarian, 6.01 µM; in the assay on UO-31 renal, 1.8 µM. In addition, the GI50 with SF-268 CNS was 4.21 µM; with CCRF-CEM leukemia, 4.32 µM; in the assay with NCI-H23 lung it was 6.06 µM. Also, the TGI with 786-0 renal was above 100 µM; in the assay on OVCAR-3 ovarian, 41.1 µM; in the assay on IGROV1 ovarian, above 100 µM; in the assay on SN12C renal, above 100 µM; in the assay on OVCAR-8 ovarian, above 100 µM; with UO-31 renal it was above 100 µM. In addition, the TGI in the assay with SF-268 CNS, in the assay on CCRF-CEM leukemia and in the assay on NCI-H23 lung was above 100 µM in each case.
In the case of `Cc1cc(-c2cnn3c(NCC4CC(C)(O)C4)cc(Oc4cccnc4)nc23)ccc1C(=O)NC1CC1` (centres undefined), the GI50 in the assay on 786-0 renal was 3.71 µM; in the assay on OVCAR-3 ovarian, above 100 µM; in the assay with IGROV1 ovarian it was 0.992 µM; with SN12C renal, 2.96 µM; in the assay on OVCAR-8 ovarian, 2.41 µM; in the assay with UO-31 renal it was 2.02 µM. In addition, the GI50 in the assay with SF-268 CNS is 8.72 µM; with CCRF-CEM leukemia, 0.259 µM; with NCI-H23 lung it was above 100 µM. Also, the TGI with 786-0 renal, with OVCAR-3 ovarian, with IGROV1 ovarian, in the assay with SN12C renal, in the assay on OVCAR-8 ovarian and with UO-31 renal was above 100 µM throughout. Also, the TGI with SF-268 CNS, with CCRF-CEM leukemia and in the assay with NCI-H23 lung was above 100 µM throughout.
